Reference: patent US12679878B2, “CRF2 receptor agonists and their use in therapy” (SANOFI, priority 2020, dated 2026)
Converted amounts (≈) assume the structure as drawn. Starred links: 1 amine or outer side, 2 acyl side, 3 side chain; linkers in the order of their positions; H or OH if unused. Non-standard residues stand in square brackets, D forms with d. Residues, ends and D or L forms follow the SMILES beside them. Groups on a side chain read outwards from the residue. *: point of attachment. C16 diacid = O=C(O)CCCCCCCCCCCCCCC(=O)*; γGlu = O=C(O)[C@H](CCC(=O)[*:2])N[*:1]; Palmitoyl = CCCCCCCCCCCCCCCC(=O)*; Aib = CC(C)(N)C(=O)O

Tests used:
CRF2R = molecular target: T1, CRF2R (Homo sapiens, UniProt Q13324); experiment: EC50 [nM] CRF2R
T1 construct: expressed in transfected cells; host or cells: TeloHEAC
Excerpt: Table printed on a drawing sheet, Fig. 3
Head of the field: EC50 [nM] CRF2R
The patent's description of the figure: FIG. 3: Representative sequences from peptides according to the invention with an optimized stability profile, wherein K[sema] stands for K[gGlu-C(O)(CH2)14CH3]
First copying reader's note: Second half (positions 13-38, C-term and activity) of the first table; the rows follow the same order, so the four rows of Peptide Seq. 1 are Patent Sequence N° 130, 171, 172 and 173.
Where the first naming reader finds the target: head: EC50 [nM] CRF2R

[1] = Buffer solubility by LC-UV, pH 7.4 phosphate and pH 4.5 acetate (Example 19.11); assay type: physicochemical; settings: target 10 mg/mL
Description: (§1) As for example 15 above, also the chemical stability of representative examples of these FA modified peptides has been assessed, using LC-UV instead of light scattering. Solubility and chemical stability were studied in 100 mM phosphate buffer (pH 7.4) and 100 mM acetate buffer (pH 4.5). Test compound powders were dissolved in both buffers at a target concentration of 10 mg/mL and incubated for 1 hour at room temperature. After centrifugation at 2500 rcf for 15 minutes, […] of supernatant was diluted with […] of the incubation buffer and analyzed by LC-UV (Acquity UPLC-DAD, Waters). Solubility was calculated by comparing the peak area of the test compound in the buffer sample with the peak area of the same compound dissolved at 0.5 mg/ml in water:acetonitrile 1:1, 0.1% formic acid.

human CRF2α receptor = molecular target: T2, human CRF2α receptor (Homo sapiens, UniProt Q13324); experiment: cAMP agonism at human CRF2α receptor in TeloHEAC cells, FA modified peptides (Example 19.9); assay type: cell-based; settings: 0% HSA, relative to urocortin 2
T2 construct: expressed in transfected cells; host or cells: TeloHEAC
T2 sequence (Q13324 1-411): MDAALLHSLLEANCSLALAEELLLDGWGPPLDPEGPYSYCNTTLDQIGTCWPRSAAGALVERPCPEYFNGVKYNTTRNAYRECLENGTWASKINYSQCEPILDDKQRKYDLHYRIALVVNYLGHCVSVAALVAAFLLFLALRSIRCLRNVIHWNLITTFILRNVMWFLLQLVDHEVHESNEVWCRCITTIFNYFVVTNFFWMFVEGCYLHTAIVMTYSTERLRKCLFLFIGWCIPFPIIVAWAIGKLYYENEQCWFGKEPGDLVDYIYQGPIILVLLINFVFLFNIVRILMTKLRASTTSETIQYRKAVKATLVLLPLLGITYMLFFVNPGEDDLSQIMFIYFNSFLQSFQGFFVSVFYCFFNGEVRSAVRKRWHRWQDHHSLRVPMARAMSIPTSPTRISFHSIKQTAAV
Summary of the method: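 Efficacy and EC50 are referenced to 100 nM urocortin 2 as 100%, with cAMP measured as the 665/620 nm HTRF ratio after 1 h at room temperature. Compounds (0.5 mM DMSO stock, 16 twofold dilutions) acted 30 min at 37 °C on CRF2α-expressing TeloHEAC cells, buffer containing IBMX and 0% or 0.2% HSA.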

CRF1R receptor = molecular target: T3, CRF1R receptor (Homo sapiens, UniProt P34998); experiment: cAMP activity at anti-target CRF1R, CHO-K1 cell line clone 2 (Example 19.10); assay type: cell-based; settings: ratio of CRF1 EC50 to CRF2 EC50
T3 construct: host or cells: CHO-K1 clone 2
T3 sequence (P34998 24-415): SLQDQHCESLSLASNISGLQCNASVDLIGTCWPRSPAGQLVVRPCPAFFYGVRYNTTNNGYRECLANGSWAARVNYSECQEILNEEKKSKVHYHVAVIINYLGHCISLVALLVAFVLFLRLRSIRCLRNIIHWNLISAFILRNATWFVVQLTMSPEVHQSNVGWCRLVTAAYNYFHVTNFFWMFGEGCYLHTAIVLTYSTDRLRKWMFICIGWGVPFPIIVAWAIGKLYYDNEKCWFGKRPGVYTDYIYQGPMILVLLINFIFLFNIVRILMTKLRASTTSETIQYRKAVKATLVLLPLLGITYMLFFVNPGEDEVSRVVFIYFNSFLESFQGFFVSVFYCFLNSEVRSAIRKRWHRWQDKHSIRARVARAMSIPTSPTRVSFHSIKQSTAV
Summary of the method: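 A CRF1R-overexpressing CHO-K1 line (clone 2) was grown in F12/10% FBS/G418 and frozen in aliquots before use. The cAMP assay followed the preceding procedure, with 100% activation defined by Sauvagine at 100 nM.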

[2] = Chemical stability as % loss by LC-UV, 28 days 40° C. vs 5° C. (Example 19.11); assay type: physicochemical
Description: as §1
From the centrifuged supernatant, two additional […] aliquots were collected and diluted with […] of incubation buffer. One aliquot was stored at 5° C., while the other was stored at 40° C. After 28 days, the samples were analyzed by LC-UV. Chemical stability was calculated as % loss using the following equations: • Chemical stability (as % loss)=[(purity after 28 days at 5° C.)−(purity after 28 days at 40° C.)]×100/(purity after 28 days at 5° C.) % purity=[(peak area compound)×100/(total peak area)]

## CCCCCCCCCCCCCCCC(=O)N[C@@H](CCC(=O)NCCCC[C@H](NC(=O)[C@H](CC(C)C)NC(=O)[C@H](CCCCN)NC(=O)[C@@H](NC(=O)[C@@H]1CCCN1C(=O)[C@@H](NC(=O)[C@H](CC(=O)O)NC(=O)[C@H](CC(C)C)NC(=O)[C@H](CO)NC(=O)[C@H](CC(C)C)NC(=O)[C@@H](NC(=O)[C@@H](N)[C@@H](C)CC)C(C)C)C(C)C)[C@@H](C)CC)C(=O)N[C@@H](CCCCN)C(=O)N[C@H](C(=O)N[C@@H](CC(C)C)C(=O)N[C@@H](CC(C)C)C(=O)N[C@@H](CCC(=O)O)C(=O)N[C@@H](CCC(N)=O)C(=O)N[C@@H](CCC(=O)O)C(=O)N[C@@H](CCCCN)C(=O)N[C@@H](CCC(N)=O)C(=O)N[C@@H](CCC(=O)O)C(=O)N[C@@H](CCCCN)C(=O)N[C@@H](CCC(=O)O)C(=O)N[C@@H](CCCCN)C(=O)N[C@@H](CCC(N)=O)C(=O)N[C@@H](CCC(N)=O)C(=O)N[C@@H](C)C(=O)N[C@@H](CCC(=O)O)C(=O)N[C@H](C(=O)N[C@@H](CC(N)=O)C(=O)N[C@@H](C)C(=O)N[C@@H](CCC(N)=O)C(=O)N[C@H](C(=O)N[C@@H](CC(C)C)C(=O)N[C@@H](C)C(=O)N[C@@H](CCC(N)=O)C(=O)N[C@H](C(N)=O)C(C)C)[C@@H](C)CC)[C@@H](C)O)[C@@H](C)CC)C(=O)O [SEQ ID NO: 2] (H-IVLSLDVPIKLK([γGlu-Palmitoyl])KILLEQEKQEKEKQQAETNAQILAQV-NH2)
CRF2R
  EC50: 0.07 nM

## CCCCCCCCCCCCCCCC(=O)N[C@@H](CCC(=O)NCCCC[C@H](NC(=O)[C@H](CC(C)C)NC(=O)[C@H](CCCCN)NC(=O)[C@@H](NC(=O)[C@@H]1CCCN1C(=O)[C@@H](NC(=O)[C@H](CC(=O)O)NC(=O)[C@H](CC(C)C)NC(=O)[C@H](CO)NC(=O)[C@H](CC(C)C)NC(=O)[C@@H](NC(=O)[C@@H](N)[C@@H](C)CC)C(C)C)C(C)C)[C@@H](C)CC)C(=O)N[C@@H](CCCCN)C(=O)N[C@H](C(=O)N[C@@H](CC(C)C)C(=O)N[C@@H](CC(C)C)C(=O)N[C@@H](CCC(=O)O)C(=O)N[C@@H](CCC(N)=O)C(=O)N[C@@H](CCC(=O)O)C(=O)N[C@@H](CCCCN)C(=O)N[C@@H](CCC(N)=O)C(=O)N[C@@H](CCC(=O)O)C(=O)N[C@@H](CCCCN)C(=O)N[C@@H](CCC(=O)O)C(=O)N[C@@H](CCCCN)C(=O)N[C@@H](CCC(N)=O)C(=O)N[C@@H](CCC(N)=O)C(=O)N[C@@H](C)C(=O)N[C@@H](CCC(=O)O)C(=O)N[C@@H](CCCCN)C(=O)N[C@@H](CC(N)=O)C(=O)N[C@@H](C)C(=O)N[C@@H](CCC(N)=O)C(=O)N[C@H](C(=O)N[C@@H](CC(C)C)C(=O)N[C@@H](C)C(=O)N[C@@H](CCC(N)=O)C(=O)N[C@H](C(N)=O)C(C)C)[C@@H](C)CC)[C@@H](C)CC)C(=O)O [SEQ ID NO: 3] (H-IVLSLDVPIKLK([γGlu-Palmitoyl])KILLEQEKQEKEKQQAEKNAQILAQV-NH2)
CRF2R
  EC50: 0.04 nM

## CCCCCCCCCCCCCCCC(=O)N[C@@H](CCC(=O)NCCCC[C@H](NC(=O)[C@H](CC(C)C)NC(=O)CNC(=O)[C@@H](NC(=O)[C@@H]1CCCN1C(=O)[C@@H](NC(=O)[C@H](CC(=O)O)NC(=O)[C@H](CC(C)C)NC(=O)[C@H](CO)NC(=O)[C@H](CC(C)C)NC(=O)[C@@H](NC(=O)[C@@H](N)[C@@H](C)CC)C(C)C)C(C)C)[C@@H](C)CC)C(=O)N[C@@H](CCC(N)=O)C(=O)N[C@@H](CCCCN)C(=O)N[C@@H](CC(C)C)C(=O)N[C@@H](CC(C)C)C(=O)N[C@@H](CCCCN)C(=O)N[C@@H](CCC(N)=O)C(=O)N[C@@H](CCC(=O)O)C(=O)N[C@@H](CCCCN)C(=O)N[C@@H](CCC(N)=O)C(=O)N[C@@H](CCC(=O)O)C(=O)N[C@@H](CCCCN)C(=O)N[C@@H](CCC(=O)O)C(=O)N[C@@H](CCCCN)C(=O)N[C@@H](CCC(N)=O)C(=O)N[C@@H](CCC(N)=O)C(=O)N[C@@H](C)C(=O)N[C@@H](CCC(=O)O)C(=O)N[C@H](C(=O)N[C@@H](CC(N)=O)C(=O)N[C@@H](C)C(=O)N[C@@H](CCCCN)C(=O)N[C@H](C(=O)N[C@@H](CC(C)C)C(=O)N[C@@H](C)C(=O)N[C@@H](CCC(N)=O)C(=O)N[C@H](C(N)=O)C(C)C)[C@@H](C)CC)[C@@H](C)O)C(=O)O [SEQ ID NO: 4] (H-IVLSLDVPIGLK([γGlu-Palmitoyl])QKLLKQEKQEKEKQQAETNAKILAQV-NH2)
CRF2R
  EC50: 0.05 nM

## CC[C@H](C)[C@H](N)C(=O)N[C@H](C(=O)N[C@@H](CC(C)C)C(=O)N[C@@H](CO)C(=O)N[C@@H](CC(C)C)C(=O)N[C@@H](CC(=O)O)C(=O)N[C@@H](C(=O)N1CCC[C@H]1C(=O)N[C@H](C(=O)N[C@@H](CCCCN)C(=O)N[C@@H](CC(C)C)C(=O)N[C@@H](CCCCNC(=O)CC[C@H](NC(=O)CCCCCCCCCCCCCCC(=O)O)C(=O)O)C(=O)N[C@@H](CCC(N)=O)C(=O)N[C@H](C(=O)N[C@@H](CC(C)C)C(=O)N[C@@H](CC(C)C)C(=O)N[C@@H](CCCCN)C(=O)N[C@@H](CCC(N)=O)C(=O)N[C@@H](CCC(=O)O)C(=O)N[C@@H](CCCNC(=N)N)C(=O)N[C@@H](CCC(N)=O)C(=O)N[C@@H](CCCCN)C(=O)NC(C)(C)C(=O)N[C@@H](CCC(N)=O)C(=O)N[C@@H](CCCNC(=N)N)C(=O)N[C@@H](CCC(N)=O)C(=O)N[C@@H](CCC(N)=O)C(=O)N[C@@H](C)C(=O)N[C@@H](CCC(=O)O)C(=O)N[C@@H](CCCCN)C(=O)N[C@@H](CC(N)=O)C(=O)N[C@@H](CCCCN)C(=O)N[C@@H](CCC(N)=O)C(=O)N[C@H](C(=O)N[C@@H](CC(C)C)C(=O)N[C@@H](C)C(=O)N[C@@H](CCC(N)=O)C(=O)N[C@H](C(N)=O)C(C)C)[C@@H](C)CC)[C@@H](C)CC)[C@@H](C)CC)C(C)C)C(C)C [compound 188] (H-IVLSLD[dV]PIKLK([γGlu-C16 diacid])QILLKQERQK[Aib]QRQQAEKNKQILAQV-NH2; N-terminus assumed)
[1]; pH 4.5, 100 mM acetate buffer
  solubility at 1 h: 8.3 mg/mL (≈ 1710 µM)
[1]; pH 7.4, 100 mM phosphate buffer
  solubility at 1 h: 7.9 mg/mL (≈ 1630 µM)
Human CRF2α receptor
  EC50: 0.46 nM
CRF1R receptor
  CRF1/CRF2 ratio: 134
[2]; pH 4.5
  % loss (chemical stability): 0%
[2]; pH 7.4
  % loss (chemical stability): 40%
